Read-outs that look alike come from different tables or passages of the source.
Key:
[1] = Fluorescence turn-on sensing and titration of silver ions; details: for ratio [Ag^+]:[probe] at which PL intensity is saturated / maximum: probe 5 μM; for LOD (limit of detection) of silver ions / Linear Range of silver ion detection: probe 5 μM in DI-water, excitation 345 nm
Source text: The turn-on fluorescence response was instant. The detection of silver ions was highly sensitive and sharp intensity changes could be detected with the naked eye. DLS (Dynamic light scattering) measurement confirmed the formation of nanoparticles. […] This is likely due to the reduction of silver-tetrazole complexes by the strong electron-beam during TEM studies. These emissive silver-compound solid complexes are hardly soluble in a range of solvents, including DMSO, methanol, and water. NMR analysis of these complexes is not possible. The complexes are also resistant to acid/base treatment, or heating by a heat-gun.
In fluorescence spectroscopy, solutions containing silver ions behaved quite differently from solutions without silver ions in terms of intensity, with the ratio of intensity at maximum peak at 504 nm exceeding 400 times (FIGS. 3A-3D). […] By plotting the intensity of maximum intensive peaks against the ratio of ion concentrations, it was expected that the working curve for the quantitative detection of silver ions could be established. […] Meanwhile, the detection limit (LOD) of silver ions is estimated to be 40 nM (S/N=3 and n=11). With a further increase of [Ag^+], the intensity reaches a plateau.
Tetrazole-tagged AIE luminogen TPE-4TTZ (5 μM) undergoes a fluorescence turn-on response towards a solution of silver ions. The solutions can include organic solutions, aqueous solutions including natural water, wastes and/or biological buffer solutions. PL spectra were recorded on a Perkin-Elmer LS 55 spectrofluorometer.
The solutions included organic solutions, aqueous solutions including natural water, wastes and/or biological buffer solutions. For the same probes, the calibration curve varied a little in different solutions. UV spectra were measured on a Biochrom Libra S80PC double beams spectrometer. PL spectra were recorded on a Perkin-Elmer LS 55 spectrofluorometer.

[2] = Fluorescent quantum yield in solid state and in solution; type: physicochemical; details: solid state
Experimental: (§1) The present compounds are strongly emissive in the solid state with good fluorescent quantum yields. The compounds are weakly emissive or non-emissive when dissolved in aqueous solutions. […] In contrast, when these compounds are dissolved, the solutions only emit faint light (Qy<1%). The compounds dissolve well in alcohols. The compounds can be modestly dissolved (for TPE-4TTZ, up 100 μM in DI-water) in the aqueous phase. Furthermore by the addition of NaOH solutions, the formed salts dissolve well in the aqueous phase (for TPE-4TTZ, up to 1 M in water).

[3] = Interference of silver-binding reagents with silver sensing; details: TPE-4TTZ 5 μM, anions 100 equiv.
Experimental: Detection can be based on selective coordination involving electrostatic interactions. Tests were conducted to determine whether silver binding moieties (e.g., anions) might be another kind of interfering factor in the mixture. […] After a short while of shaking, the probe (10 eq.) was added. Each solution was gently mixed and then checked in a PL machine. Compared with the control group, the interfering reagents including amino acids and DNA/RNA bases were only weakly interfering with the silver-tetrazole sensing process. In other words, the tetrazole anions can snatch silver ions from these ligands and elicit a fluorescence turn-on. There were exceptions, in particular for strong silver-interacting structures. Cysteine, the sulfur-containing amino acid, blocked sensing by the strong S—Ag interaction. Similar results were seen from SCN^− and S2O3^2-, due to their stronger binding affinity towards Ag^+ than the tetrazole anion (CN4^−). In addition, ammonium solution blocked sensing by reducing Ag^+ into metallic silver.
With reference to FIG. […] PL spectra were recorded on a Perkin-Elmer LS 55 spectrofluorometer. […] In each example, the silver-binding molecule was added prior to the addition of the probes from a stock solution. The stock solution of the probe is 1 mM in ethanol. PL spectra were recorded on a Perkin-Elmer LS 55 spectrofluorometer.

[4] = Solubility in the aqueous phase; type: physicochemical
Experimental: as §1

[5] = Selectivity: fluorescence response to other metal ions
Experimental: (§2) As selectivity is an important parameter for sensing technique, responses of these probes to other metal ions were examined. […] Mercury is reported to coordinate with the tetrazole group.
(§3) With reference to FIG. 7, tetrazole-tagged AIE luminogen TPE-4TTZ (10 μM) underwent a fluorescence turn-on response towards a solution of silver ions in the presence of other metal ions in phosphate aqueous solution (10 mM, pH 7.4). PL spectra were recorded on a Perkin-Elmer LS 55 spectrofluorometer. Tetrazole-tagged AIE luminogen TPE-4TTZ (10 μM) underwent a fluorescence turn-on response towards a solution of silver ions in the presence of other silver-binding molecules in phosphate aqueous solution (10 mM, pH 7.4). In each example, the silver-binding molecule was added prior to the addition of the probes from a stock solution. The stock solution of the probe is 1 mM in ethanol. PL spectra were recorded on a Perkin-Elmer LS 55 spectrofluorometer.

[6] = cited from earlier work
[7] = Selectivity: fluorescence response to mercury ions
Source text: as §2
The Ag^+/Hg^2+ coordination-induced fluorescence can be pH-sensitive. For example, with respect to TPE-4TTZ, a series of tests were done in phosphate buffer solutions at different pH varying from 4 to 12. At pH lower than 4, the tetrazole moiety (pKa˜4-5) was largely in the protonated form and sparingly soluble in solution and, thus, aggregated. The aggregation elicited fluorescence with a different color from that of the silver complexes. Therefore, the turn-on detection is only possible in solutions with pH>4. […] Furthermore regarding the mercury detection, the FL response was significant only at the pH window (4˜7); when pH>8, the fluorescence turn-on was not observed anymore. […]
as §3, with “In each example, the silver-binding molecule was added prior to the addition of the probes from a stock solution. The stock solution of the probe is 1 mM in ethanol. PL spectra were recorded on a Perkin-Elmer LS 55 spectrofluorometer.” left out

[8] = pH dependence of Ag^+ induced fluorescence in phosphate buffer; details: phosphate buffer solutions
Source text: The Ag^+/Hg^2+ coordination-induced fluorescence can be pH-sensitive. For example, with respect to TPE-4TTZ, a series of tests were done in phosphate buffer solutions at different pH varying from 4 to 12. At pH lower than 4, the tetrazole moiety (pKa˜4-5) was largely in the protonated form and sparingly soluble in solution and, thus, aggregated. The aggregation elicited fluorescence with a different color from that of the silver complexes. Therefore, the turn-on detection is only possible in solutions with pH>4. When pH is from 5˜6, PL response is significant enough for a high resolution detection of silver ions. […] Furthermore regarding the mercury detection, the FL response was significant only at the pH window (4˜7); when pH>8, the fluorescence turn-on was not observed anymore. Thus, TPE-4TTZ is only sensitive to silver ions in basic solutions. Similar observations were made for the other tetrazole-tagged TPEs.

[9] = phosphate aqueous solution 10 mM, pH 7.4

Row | SMILES | ratio [Ag^+]:[probe] at which PL intensity is saturated / maximum [1] | LOD (limit of detection) of silver ions [1] | Linear Range of silver ion detection [1] | fluorescent quantum yield (Qy) [2] | fluorescence response on addition of silver ions ([1]; TPE-4TTZ 5 μM, silver ions 500 μM, UV 350 nm) | fluorescence on mixing with different anions without Ag^+ [3] | solubility ([4]; deionised water, DI-water, read-out: solubility in the aqueous phase) | solubility ([4]; water with added NaOH solution, aqueous buffer, water, after addition of NaOH solution, read-out: solubility of the formed salt in the aqueous phase) | PL response to Mg^2+, Mn^2+, Zn^2+, Al^3+ etc. [5, 9] | effect of Fe^2+, Fe^3+, Co^2+ and Cu^2+ on fluorescence ([5]; same conditions) | pKa of tetrazole moiety [6] | PL response to mercury ions [7, 9] | pH window with significant FL response to mercury ([7]; phosphate buffer solutions, pH 4 to 12) | pH at which maximum PL response to silver is relatively stable [8] | pH at which turn-on detection of silver is possible ([8]; pH 4 to 12)
1 | c1ccc(C(=C(c2ccccc2)c2ccc(-c3nnn[nH]3)cc2)c2ccccc2)cc1 [TPE-1TTZ] | 0.6 | 1.5 nM | 0.1~3 μM | 39.6% |  |  |  |  |  |  |  |  |  |  | 
2 | c1ccc(C(=C(c2ccc(-c3nnn[nH]3)cc2)c2ccc(-c3nnn[nH]3)cc2)c2ccccc2)cc1 [TPE-2TTZ] | 2.6 | 3.0 nM | 0.2~10 μM | 36.2% |  |  |  |  |  |  |  |  |  |  | 
3 | c1cc(-c2nnn[nH]2)ccc1C(=C(c1ccc(-c2nnn[nH]2)cc1)c1ccc(-c2nnn[nH]2)cc1)c1ccc(-c2nnn[nH]2)cc1 [TPE-4TTZ] | ~4 | 2.3 nM | 0.04~15 μM | 76.8% | highly emissive | did not generate strong fluorescence | ≤ 0.1 mM | ≤ 1000 mM | hardly increased the PL intensity | quench the weak fluorescence | 4-5 | significant enhancement of PL intensity | 4˜7 | > 6 | > 4

Reference: US12029796B2, “Fluorescent probes for silver ION detection” (THE HONG KONG UNIVERSITY OF SCIENCE AND TECHNOLOGY, priority 2017, dated 2024)
